The nature of this series: Temperature-dependent solubility (saturation concentration) of fumaric acid in di-n-butyl phthalate absorbent. In kind it is physicochemical. From the text:
The analysis can be effected, for example, by means of calibrated gas chromatography. For calibration, preference is given to using an internal standard, for example diethylene glycol dimethyl ether. Before the gas chromatography analysis, the sample is generally homogenized, i.e. taken up in a solvent. One example of a solvent entirely suitable for this purpose is N,N-dimethylformamide. […] Particularly suitable separating columns are capillary columns with 100% dimethylpolysiloxane (e.g. DB-1 from Agilent) or (14% cyanopropylphenyl)methylpolysiloxane (e.g. DB-1701 from Agilent), preferably each of length 60 m, internal diameter 0.32 mm and film thickness 1 μm.
The syringe attachment filter used is a membrane filter of pore width 0.2 micrometer. […] Its concentration is determined analogously to the analysis method described in the determination of c(FA, desorption column outlet). […] When establishing the new, higher temperature, the temperature of the suspension must not overshoot the desired temperature by more than 3° C. When the desired temperature has been established, the mixture is then stirred at constant temperature at least for a duration of 4 hours. • (6) After this continued stirring time, another sample is taken, as described in point (4). In each sampling, generally a new syringe attachment filter is used.
Examples of secondary components caused by the industrial process include water, maleic anhydride, maleic acid, acrylic acid, methacrylic acid, acetic acid, propionic acid, phthalic anhydride and phthalic acid. […] The continuous line corresponds to the fitted curve.

As to `O=C(O)/C=C/C(=O)O` [fumaric acid], the “saturation concentration of fumaric acid in the solution” value is recorded as 250 ppm by weight (mixture of dibutyl phthalate and fumaric acid, 50° C.); 250 ppm by weight (solution from industrially operated maleic anhydride plant (dibutyl phthalate >98.5% by weight), 30° C.); 400 ppm by weight (solution from industrially operated maleic anhydride plant (dibutyl phthalate >98.5% by weight), 50° C.).
